From patent US20250114313A1, “OLIGO-BENZAMIDE ANALOGS AND THEIR USE IN CANCER TREATMENT” (BOARD OF REGENTS, THE UNIVERSITY OF TEXAS SYSTEM, priority 2022, published 2025) come the findings set out here.

Each structure is given as a SMILES string.

Assay [1] relates to ovarian cancer cell line xenograft (ES2). The assay is described as follows: Ovarian cancer cell line xenograft ES2. To be noted: 10 mg/kg/day i.p. In kind it is in vivo, mice. The method, then: Animal Studies: All animal experiments were performed using UTHSA and UTSW IACUC approved protocols. For cell based xenograft tumor assays, TNBC cells (2×10^5-2×10^6) were mixed with an equal volume of matrigel and implanted in the mammary fat pads of 6-week-old female athymic nude mice as described^33. BALB/c mice were used for D2A1 syngeneic model. Once tumors reached measurable size, mice were divided into control (vehicle) and ERX-41 (10 mg/kg/oral) treatment groups. Mice bearing TNBC PDX tumors were purchased from Jackson laboratory (TM00089; TM00096; TM00098). TNBC PDX line UTPDX0001 establishment was earlier described^38. WHIM-20 ER+PDX model was purchased from Horizon Labs. OCa-PDX-38 was received from UTHSA ObGyn tissue procurement core. When tumors reached ˜750 mm^3 they were dissected into 2 mm^3 pieces and implanted into the mammary fat pads of 6 weeks old female SCID or NSG mice. When the tumor volume reached ˜200 mm^3, mice were randomized for treatment. The mice were monitored daily for adverse toxic effects and tumor volume was measured every 3-4 days using calipers. For establishing ES2 tumors, ES2/GFP/LUC cells were injected i.p. and tumors were measured twice a week using Xenogen in vivo imaging system. […] The mice were monitored daily for adverse toxic effects. […] The sections were scored by two independent evaluators blinded to the patient's clinical status.

Assay [2] deals with T1, lysosomal acid lipase (LAL) protein (Homo sapiens, UniProt P38571).
T1 construct: heat stability of LAL or vinculin protein in SUM-159 cells; endogenous in cells; host or cells: SUM-159
The assay is described as follows: Cellular thermal shift assay, LAL. Conditions: 10 μM, SUM-159 cells. It counts as binding. The protocol: Cellular Thermal Shift Assay (CETSA): Cellular Thermal Shift Assays were performed as described previously^36. Briefly, cells were treated with DMSO or 10 μM ERX-41 for 30 min, then trypsinized, pelleted and resuspended in PBS supplemented with Halt protease inhibitor cocktail (Thermo Scientific), with DMSO or 10 μM ERX-41. Resuspended cells were aliquoted into PCR strips. The cells were incubated in thermal cycler (Bio-rad) at gradient temperatures for 3 minutes, followed by incubation at 25° C. for 3 minutes. Then cells were snap-frozen in liquid nitrogen. Freeze-thaw the cells twice using liquid nitrogen. Then transfer samples into Eppendorf tubes, followed by briefly vortex and centrifuge at 20,000 g for 20 minutes at 4° C. Mix cleared cell lysates with ⅓ volume of 4× Laemmli sample buffer. After boiling, cell lysates were resolved in SDS-PAGE followed by western blotting.

The subject of assay [3] is ERα+ breast, glioblastoma, pancreatic and ovarian cancer cell lines. Put plainly: CTG dose response in other cancer cell lines. In kind it is cell-based. The method, then:
Cell viability assays: Cells were seeded in 96-well plates (2×10^3 cells/well) one day before the treatment. Cells were treated with varying concentrations of ERX-41 or ERX-11 analogs for 3-6 days. Then effects of ERX-41 or ERX-11 analogs on cell viability were measured in triplicate or sextuplicate with multiple biological replicates using the WST-1 (Promega), MTT as previously described^33 or CellTiter-Glo 2.0 (Promega) assays.

T1 sequence (P38571 77-399): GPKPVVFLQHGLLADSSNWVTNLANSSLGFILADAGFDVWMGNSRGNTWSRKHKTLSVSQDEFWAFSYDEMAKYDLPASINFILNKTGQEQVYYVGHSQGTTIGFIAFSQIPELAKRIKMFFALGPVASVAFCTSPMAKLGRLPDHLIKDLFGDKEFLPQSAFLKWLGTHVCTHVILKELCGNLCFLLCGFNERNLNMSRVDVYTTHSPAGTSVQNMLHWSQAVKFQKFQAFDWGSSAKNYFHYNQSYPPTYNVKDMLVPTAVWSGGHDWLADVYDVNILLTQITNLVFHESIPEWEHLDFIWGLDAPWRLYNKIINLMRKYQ

In the case of `CC(C)COc1cc(C(=O)Nc2ccc(C(=O)N[C@H]3CC[C@H](C)CC3)cc2OCC(C)C)ccc1NC(=O)c1ccc([N+](=O)[O-])c(OCCO)c1` [ERX-41], in assay [1], the “activity against ES2 xenograft” value is given as “has activity against”. Besides, the “thermal stability of LAL” value in assay [2] is given as “stabilize the thermal stability of LAL”. The “responsiveness of other cancer cell lines in vitro” value in assay [3] was “responsiveness to ERX-41 in vitro”.
